Here are results for 14 compounds from PubChem BioAssay (NCI).

Molecules are shown by their SMILES.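 Assay format: 96-well plates, 48-hour exposure. The concentration for full growth arrest is given as TGI.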

Experiment in all cases: NCI-60 cell line screen, 48 h
The subject of assay [1] is HOP-62 NSCLC.
Assay [2] relates to TK-10 renal.
The test system of assay [3] is MOLT-4 leukemia.
Assay [4] concerns HCT-15 colon.
In assay [5] the test system is SK-MEL-28 melanoma.
The subject of assay [6] is OVCAR-3 ovarian.
The subject of assay [7] is A498 renal.
Assay [8] has as its system SF-268 CNS.
Assay [9] deals with UACC-62 melanoma.

Turning to `COc1cc2c(cc1OCCCC(=O)Nc1cc(C(=O)Nc3cc(C(=O)NCCCN(C)C)n(C)n3)n(C)n1)N=CC1CCCN1C2=O` (stereo unspecified), the TGI in [1] amounted to 68.7 µM; in assay [2] it was 35.7 µM; in assay [3] it was 18.9 µM; in assay [4], 37.6 µM; in assay [5], 30.4 µM; in assay [6], 33 µM. Besides, the TGI came to 59.2 µM in assay [7], 41.2 µM in [8] and 57.3 µM in assay [9].

`NNC(=O)c1ccccc1NC(=O)/C(=C/c1ccccc1)NC(=O)c1ccccc1`: the TGI in [1], in assay [2], in [3], in assay [4], in [5] and in assay [6] was above 100 µM in each case. Besides, the TGI in assay [7], in assay [8] and in [9] was above 100 µM in each case.

Regarding `Cn1c(N/N=C/c2ccc(Cl)cc2)nc(-c2ccc(Cl)cc2)c(C#N)c1=O`, the TGI is 25.1 µM in [1]; 76.3 µM in assay [2]; above 100 µM in [3]; above 100 µM in [4]; above 100 µM in assay [5]; 32.7 µM in [6]. In addition, the figures for the TGI in assay [7], in [8] and in [9] were 93.5 µM, above 100 µM and 48.4 µM, respectively.

Take `COC(=O)C(Cc1ccccc1)NC(=O)CNC(=O)CSc1nnc(COc2ccc(Cl)cc2)n1-c1ccccc1` (stereo unspecified): the TGI in assay [1] was 35.3 µM; in [2], 27.7 µM; in [3], above 24.2 µM; in assay [4] it was 36.4 µM; in assay [5] it was 34.6 µM; in [6], 30.9 µM. Also, the TGI in [7] turned out to be 29.4 µM; in assay [8] it was 33 µM; in assay [9] it was 28.6 µM.

With `CN(C)CCCOC(=O)C(O)(Cc1ccccc1)C1CC1` (stereo unspecified), the TGI in [1], in assay [2], in assay [3], in assay [4], in assay [5] and in assay [6] was above 100 µM each time. Also, the TGI in [7], in assay [8] and in assay [9] was above 100 µM throughout.

Turning to `CCCCCCCCOCC1S(=O)(=O)OCCOS1(=O)=O`, the TGI in [1], in assay [2], in assay [3], in [4], in assay [5] and in assay [6] was above 100 µM throughout. Besides, the TGI in [7], in assay [8] and in [9] was above 100 µM each time.

`CCCCCc1c(CCCC)c(=O)[nH]c2cc(CNCC(OC)OC)ccc12`: the TGI in assay [1] stood at 33.5 µM; in assay [2], 28.7 µM; in [3], 20.6 µM; in assay [4], 23.8 µM; in assay [5], 12.2 µM; in assay [6], 32.3 µM. In addition, the TGI stood at 28.9 µM in assay [7], 32.6 µM in [8] and 12.2 µM in [9].

With `COC(=O)CC1C2CC3C(C2=O)C13` (stereo unspecified), the TGI in assay [1], in assay [2], in [3], in [4], in assay [5] and in assay [6] was above 100 µM throughout. Also, the TGI in assay [7], in assay [8] and in [9] was above 100 µM each time.

On to `c1ccc2c(c1)SC1Sc3ccccc3[S+]21` (stereo unspecified), for which the TGI in assay [1] is above 100 µM; in [2] it was 55.4 µM; in [3], 47.8 µM; in [4], above 79.5 µM; in assay [5] it was 41.4 µM; in [6], 46 µM. For the same compound, the TGI in assay [7] was above 100 µM; in [8], 39.8 µM; in assay [9] it was 37.4 µM.

Consider `Nc1cc(CO)cc(Nc2c3ccccc3nc3occc23)c1`, for which the TGI in assay [1] was above 100 µM; in assay [2], above 100 µM; in [3] it was 50.1 µM; in assay [4], above 100 µM; in [5], 72.4 µM; in assay [6], above 100 µM. Besides, the TGI in assay [7] is above 100 µM; in assay [8], 87.3 µM; in assay [9], 86.8 µM.

For `O=C(c1cccs1)N(C(=O)N1CCC(c2ccccc2)CC1)c1ccccc1`, the TGI in assay [1] was 98.3 µM; in assay [2], above 100 µM; in assay [3] it was above 100 µM; in assay [4] it was above 100 µM; in assay [5], above 100 µM; in assay [6], above 100 µM. The TGI in [7], in [8] and in assay [9] was above 100 µM throughout.

With `CCOC(=O)/C(=C\c1ccc(CO)o1)P(=O)(OCC)OCC`, the TGI in assay [1] was above 100 µM; in [2] it was above 100 µM; in [3], above 100 µM; in assay [4] it was 33.2 µM; in [5], 82.3 µM; in assay [6], 59.9 µM. The figures for the TGI in assay [7], in assay [8] and in assay [9] were above 100 µM, 75.8 µM and above 100 µM, respectively.

In the case of `CC1(C)N=C(N)N=C(N)N1c1cccc(CSc2ccccc2)c1`, the TGI in [1], in assay [2], in assay [3], in [4], in assay [5] and in assay [6] was above 100 µM throughout. Moreover, the TGI in [7], in assay [8] and in assay [9] was above 100 µM each time.

With `COC1CCC(OC2CC(C3(C)CCC4(CC(O)C(C)C(C(C)/C=C(\C)C(=O)C(C)CC(C)C(=O)O)O4)O3)OC3(OC(C4OC(O)(CO)C(C)CC4C)CC3C)C2C)OC1C` (stereo unspecified), the TGI was 2.87 µM in [1]; 5.79 µM in [2]; 0.339 µM in assay [3]; 1.95 µM in assay [4]; 0.189 µM in assay [5]; 2.58 µM in [6]. Moreover, the values for the TGI in [7], in assay [8] and in assay [9] were 0.336 µM, 2.84 µM and 0.298 µM, respectively.
